According to patent US4356165A, “Bupropion radioimmunoassay, and kit” (Burroughs Wellcome Co., priority 1980, dated 1982):

System: antisera raised by presenting a suitable bupropion variant-carrier material conjugate
Test: Competition of bupropion with radiolabeled bupropion or competitor for binding to antisera
Procedure: Samples of six standard solutions of bupropion in blank plasma having concentrations of 0.39 to 50 ng/ml) are pipetted (0.1 ml each) in duplicate into 12×75 mm plastic tubes. Duplicate non-specific binding (no antibody) and maximum binding tubes (no unlabeled bupropion) receive 0.1 ml blank plasma. Spiked plasma controls at several concentrations of (e.g., 1.0, 10.0, and 100 ng/ml) and plasma samples for assay (diluted into the standard range with blank plasma if necessary) are assayed in duplicate. After being placed in an ice bath, all tubes receive (in order) 0.2 ml ^3 H bupropion (416 pg. containing approximately 10^4 cpm) and 0.7 ml anti-bupropion serum (raised to a ring-functionalized immunogen according to the present invention) (at pre-determined dilutions such that approximately 40% of the ^3 H bupropion added is bound), both in assay buffer (0.05 M phosphate-bufferedisotonic saline, containing 0.01 M EDTA and 0.1% gelatin, pH 7.0). […] The supernatants, containing antibody-bound ^3 H bupropion are carefully decanted into liquid scintillation cocktail for quantitation of ^3 H. After counts (minus average non-specific binding cpm) are expressed as percentages of average maximum binding cpm, bupropion concentrations in plasma samples and spiked controls are read from a standard curve (log concentration vs percent average maximum binding).

## CC(NC(C)(C)C)C(=O)c1cccc(Cl)c1 (racemic) [bupropion, (±)-2-tert-butylamino-3'-chloropropiophenone]
  competition with radiolabeled bupropion or radiolabeled competitor for binding to antisera: successfully compete
